Results as given in US9877961B2, “Anticoagulant reversal agents” (PEROSPHERE INC., priority 2011, dated 2018).
“Also recorded” adds a separate entry of the source.

What was measured:
[1] = tested on: rivaroxaban-induced anticoagulation; test: DAP reversal of rivaroxaban in freshly drawn human blood ex vivo, aPTT; format: biochemical; conditions: 0.25 μg/ml rivaroxaban, 50 μg/ml DAP
Description: Human blood was drawn from a volunteer. Rivaroxaban at 0.25 μg/ml was added alone or in combination with 50 μg/ml DAP. Controls contained 50 μg/ml DAP or saline. aPTT was measured within 2 minutes of blood collection.

[2] = Intravenous DAP tolerability in rats; format: in vivo, rat; conditions: DAP i.v. at 100 mg/kg, 250 mg/kg and 400 mg/kg in rats
[3] = DLS association of DAP with argatroban; format: binding; conditions: concentrations up to 1:1000
[4] = tested on: argatroban anticoagulation; test: Argatroban dosed rats given IV DAP; format: in vivo, rat; conditions: 200× IV dose of DAP
CYP enzymes = test: CYP enzyme inhibition / substrate; format: in vitro ADME; conditions: data not shown
[5] = Dynamic light scattering (DLS) association of DAP with unfractionated heparin; format: binding; conditions: DAP:heparin 100:1 mass ratio in water
Description: Dynamic light scattering (DLS) was used to assess association of 1 mg/ml unfractionated heparin and 1 mg/ml bemiparin (LMWH; HIBOR®), either alone or in combination with […] DAP in water (mass ratios of 100:1 of DAP to heparin or LMWH).

aPTT = test: Intravenous DAP alone, aPTT in the absence of anticoagulants; format: in vivo, rat; conditions: 0, 2, 10, 25, 50 or 100 mg DAP i.v., no anticoagulant
Description: 0, 2, 10, 25, 50 or 100 mg DAP were administered intravenously to male, weight matched CD rats and aPTT was measured.

[6] = tested on: fondaparinux anticoagulation; test: DAP reversal of fondaparinux (ARIXTRA®) anticoagulation in vivo, chromogenic Factor Xa assay; parameters: species or system rat
Description: The anti-factor Xa assay directly measures anti-factor Xa activity. The methodology behind an anti-factor Xa assay is that patient plasma is added to a known amount of excess factor Xa and excess antithrombin. If a factor Xa inhibitor is present in the patient plasma, it will reduce the enzymatic activity of factor Xa. The amount of residual factor Xa is inversely proportional to the amount of anti-Xa agent in the plasma. The amount of residual factor Xa is detected by adding a chromogenic substrate that mimics the natural substrate of factor Xa, making residual factor Xa cleave it, releasing a colored compound that can be detected by a spectrophotometer. […] Results are given in anticoagulant concentration in units/mL of antifactor Xa, such that high values indicate high levels of anticoagulation and low values indicate low levels of anticoagulation.
5 mg/kg fondaparinux was administered subcutaneously to rats. 200 mg/kg DAP was administered intravenously after 2 hours. Activity was measured by chromogenic 510 k cleared Factor Xa Assay (Biophen) at 10, 20, 30 and 60 minutes after DAP administration.

[7] = tested on: dabigatran etexilate (PRADAXA®) anticoagulation; test: Rat tail transection bleeding assay, dabigatran etexilate; format: in vivo
Description: Rat tail bleeding assay or rat tail transection assay is an assay that measures blood loss, e.g., blood loss after drug administration. In one embodiment, where the effect of the compound of the invention (e.g., DAP) is being tested, at the Tmax of the anticoagulant, DAP is administered intravenously. After 20 minutes, rat tails are transected approximately 1 mm from the tip, placed in room temperature saline, and blood is collected for 30 minutes and weighed.
Three rats each were administered 2 mg of rivaroxaban. One rat received a sham reversal containing no DAP, the second received 2.5 mg of DAP, and the third received 12.5 mg DAP. A fourth fat received sham anticoagulant and reversal doses (“sham”). 20 minutes after the reversal dose, tails were transected 1 mm from the tip, placed in room temperature saline, and blood loss was collected for 30 minutes and then weighed.
Same procedures were used with 1.25 mg apixaban (ELIQUIS®) alone or in combination with 5 or 12.5 mg DAP; […]; and with 5 mg edoxaban (LIXIANA®) alone or in combination with 12.5 mg DAP.

[8] = tested on: unfractionated heparin anticoagulation; test: DAP reversal of unfractionated heparin anticoagulation in vivo, aPTT; parameters: species or system rat
Source text: The activated partial thromboplastin time (aPTT) assay is an assay that measures how long it takes for the blood to clot. Blood samples are collected for direct measurement or in tubes with oxalate and citrate to arrest coagulation by calcium until the assay can be performed. In the assay, a phospholipid, an activator (silica, celite, kaolin, ellagic acid, etc.), and calcium are mixed into the plasma to induce coagulation. The assay measures the time until a thrombus (clot) forms.
A male albino rat, weighing 515 g, was administered 10 mg/kg of unfractionated heparin (5 mg UFH) by subcutaneous injection.
200 mg/kg of DAP (100 mg DAP) was administered as two intravenous bolus injections after UFH administration. Subsequently, the rat was administered a dose of 400 mg/kg of DAP (200 mg of DAP). aPTT was measured throughout the course of the entire treatment.

## N=C(N)NCCC[C@H](N)C(=O)NCCCN1CCN(CCCNC(=O)[C@@H](N)CCCNC(=N)N)CC1 (stereo in doubt) [DAP, 2-Amino-5-guanidino-pentanoic acid (3-{4-[3-(2-amino-5-guanidino-pentanoylamino)-propyl]-piperazin-1-yl}-propyl)-amide]
[1]
  effect on rivaroxaban-induced anticoagulation, aPTT: reversal of rivaroxaban-induced anticoagulation
[2]
  adverse effects: no adverse effect
[3]
  binding by DLS: did not bind
[4]
  anticoagulation of argatroban dosed rats after DAP: remained anticoagulated
CYP enzymes
  inhibition / substrate of CYP enzymes: did not inhibit or serve as a substrate
[5]
  physical association / binding by DLS: physically associated; also recorded: directly bound
aPTT
  influence of DAP on aPTT: did not influence aPTT
[6]; 5 mg/kg fondaparinux s.c., 200 mg/kg DAP i.v. after 2 hours
  time to reversal of fondaparinux anticoagulation: ≤ 10 min
[6]; rats, Xa activity
  reversal of subcutaneous fondaparinux in vivo: reversed
[7]; 15 mg dabigatran etexilate and 12.5 mg DAP, p<0.01 vs dabigatran etexilate only
  blood loss (blood collected over 30 minutes): reduced blood loss to sham dose levels
[7]; rat tail transection, 30 minutes
  reversal of dabigatran, blood loss vs anticoagulant only: statistically significant reduction in blood loss
[8]; 200 mg DAP i.v., 10 minutes
  aPTT after DAP: 33 s
[8]; first 100 mg DAP i.v., 20 minutes
  aPTT after DAP: 48 s
[8]; rat, in vivo
  reversal of unfractionated heparin in vivo: reversed
[8]; second 100 mg DAP i.v., 15 minutes
  aPTT after DAP: 47 s
[8]; within 1 hour after first 100 mg DAP
  aPTT risen after first DAP dose: 120 s
[8]; within 1 hour after second 100 mg DAP
  aPTT risen after second DAP dose: 96 s
